Laboratory results reported in PubChem BioAssay AID624344 (Sanford-Burnham Center for Chemical Genomics, 2012).
The source made the active and inactive calls. No rule for the calls is given here.

Tests used:
[1] = NFkB reporter suppression in cystic fibrosis bronchial cells – cell-based, uHTS hits, panel, cytotoxicity readout, dose response (AID 624344); conditions: CF bronchial epithelial cells, PAF-induced NFkB reporter inhibition; with PAF, mean of runs
Cytotoxicity = assay: as above; conditions: CF bronchial epithelial cells, mean of runs

| SMILES | IC50 [1] | IC50 (Cytotoxicity) |
| --- | --- | --- |
| C[C@H]1Cn2cnc(C(=O)Nc3cccc(Cl)c3)c2C(=O)N1 | 2.26 µM | 25.5 µM |
| Cc1ccc(CCC(=O)Nc2ncc(Cc3cc(Cl)ccc3Cl)s2)o1 | 19.2 µM | 13.2 µM |
| CCC(CO)Oc1cc(NCc2ccc(Cl)cc2Cl)c2ncn(C(C)C)c2c1 (stereo not given) | inactive | 11 µM |
| CN(C)c1ccc(C(C(=O)NCc2ccccc2)N(Cc2ccco2)C(=O)c2snc(C(N)=O)c2N)cc1 (stereo not given) | 3.08 µM | 6.97 µM |
| O=C(Nc1ccc(N2CCN(C(=O)c3ccccc3F)CC2)cc1)c1cncc(Br)c1 | 2.67 µM | 54.7 µM (inactive) |
| O=C(Nc1ccc(OCC(=O)N2CCOCC2)cc1)c1cncc(Br)c1 | 6.67 µM | > 79 µM (inactive) |
| CCn1c(Oc2ccccc2F)nc2c1c(=O)n(C)c(=O)n2C | 3.57 µM | > 79 µM (inactive) |
| O=C(Nc1ccc2c(c1)OCCO2)c1cc(-c2ccccn2)nc2ccc(Br)cc12 | inactive | 49.4 µM |
| CC(=O)c1c(C)n(C2CCCCC2)c2ccc(O)cc12 | 0.797 µM | > 79 µM (inactive) |
| CCOC(=O)c1ccc(NC(=O)Nc2nncs2)cc1 | 9.39 µM | 64 µM (inactive) |
| C=CCSc1nc2ccccc2n1C(=O)/C=C/c1ccc(OC)c(OC)c1 | 3.46 µM | 62 µM (inactive) |
| CC(=O)Nc1ccc(NC(=O)COC(=O)c2c3c(nc4ccccc24)CCN(Cc2ccccc2)C3)cc1 | 5.27 µM | 4.16 µM |
| COc1ccc(-c2ccccc2[C@H]2[C@@H]3C=CC[C@@H](C)[C@@H]3C(=O)N2Cc2ccccc2)cc1 | 13.6 µM | 19.6 µM |
| COc1ccc(-n2nnnc2C(CCc2ccccc2)N2CCC(n3c(=O)[nH]c4ccccc43)CC2)cc1 (stereo not given) | 6.25 µM | 11.1 µM |
| C[C@H]1C[C@@H](C)C(=O)[C@@H]([C@H](O)CC2CC(=O)NC(=O)C2)C1 | 0.37 µM | 8.86 µM |
| CN(C)CCCN(C(=O)CCOc1ccccc1)c1nc2ccc(F)cc2s1 | 2.53 µM | 12.7 µM |
| COc1ccc(OC)c(-c2nnc3n2N=C(c2ccc(OC)c(OC4CCOC4)c2)CS3)c1 (stereo not given) | 1.71 µM | > 79 µM (inactive) |
| Cc1nn(-c2nccs2)c2c1C(=O)CC(C)(C)C2Br (stereo not given) | 5.11 µM | 38.8 µM |
| CCC1=Nc2cc(C(=O)NCc3ccco3)ccc2Sc2ccc(C)cc21 | 11.7 µM | 57.9 µM (inactive) |
| COc1ccc(C[C@H]2NC[C@H](O)[C@H]2OC(C)=O)cc1 | 0.155 µM | 0.799 µM |

| SMILES | IC50 [1] | IC50 (Cytotoxicity) |
| --- | --- | --- |
| O=C(CCl)N(Cc1cc(=O)[nH]c2ccccc12)c1ccccc1 | 1.48 µM | 2.98 µM |
| Cc1nc(N2CCC(C(N)=O)CC2)c2c(-c3cccs3)csc2n1 | 3.23 µM | 33.5 µM |
| CC[C@@H](C(=O)[C@@H](C)[C@@H](O)[C@H](C)[C@@H]1O[C@@H]([C@@H](CC)C(=O)O)CC[C@@H]1C)[C@H]1O[C@]2(C=C[C@@H](O)[C@]3(CC[C@@](C)([C@H]4CC[C@](O)(CC)[C@H](C)O4)O3)O2)[C@H](C)C[C@@H]1C | 0.399 µM | 2.36 µM |
| O=C(NC1CCCC(C(F)(F)F)C1)c1ccc([N+](=O)[O-])o1 (stereo not given) | 3.87 µM | 11 µM |
| CCC(Oc1ccccc1)C(=O)Nc1ncc([N+](=O)[O-])s1 (stereo not given) | 9.05 µM | 31 µM |
| Nc1nccc(-c2ccc(-n3cnc4ccccc43)cc2)n1 | 2.13 µM | 49.1 µM |
| Cc1ccc(Nc2nc3nonc3[nH]c2=O)cc1Cl | 4.7 µM | 15.1 µM |
| COc1ccc(C2CNC(=O)C2)cc1OC1CCCC1 (stereo not given) | 11.3 µM | 40.7 µM |
| C[C@@H]1CN([C@H](C)CO)C(=O)c2cc(NC(=O)Nc3ccc(C(F)(F)F)cc3)ccc2O[C@H]1CN(C)S(=O)(=O)c1cccs1 | 5.41 µM | 54.9 µM (inactive) |
| Cc1ccc(C(=O)c2cncc(Br)c2)cc1 | 13 µM | > 79 µM (inactive) |
| S=c1[nH]nc(-c2ccncc2)n1/N=C/C(Cl)=C\c1ccccc1 | 1.06 µM | 35 µM |
| CC1CCN(CC(CS(=O)(=O)c2ccc([N+](=O)[O-])cc2)N2CCC(C)CC2)CC1 (stereo not given) | 2.44 µM | 3.57 µM |
| COc1cc2c(c(OC)c1O)-c1ccc(OC)c(=O)cc1C(NC(=O)C(F)(F)F)CC2 (stereo not given) | > 79 µM (inactive) | > 79 µM (inactive) |
| O=C(c1cc([N+](=O)[O-])ccc1N1CCOCC1)N1CCN(c2ccccc2)CC1 | inactive | > 79 µM (inactive) |
| O=C(CN1C(=O)CCC1=O)Nc1nc(-c2nc3ccccc3s2)cs1 | 4.92 µM | > 79 µM (inactive) |
| Cc1cc(N2C(=O)C(O)=C(C(=O)c3ccc(C)o3)C2c2cccc(Oc3ccccc3)c2)no1 (stereo not given) | 10.6 µM | 41.7 µM |
| Cc1nn(-c2cccc(Cl)c2)c2nc(C(F)(F)F)[nH]c(=O)c12 | 16.9 µM | 27.4 µM |
| CC(C)(C)C(=O)/C(=C/c1ccncc1)n1cncn1 | 2.22 µM | 15.1 µM |
| COc1ccc(-n2nnnc2C(CCSC)N2CCC(n3c(=O)[nH]c4ccccc43)CC2)cc1 (stereo not given) | 6.48 µM | 13.7 µM |
| COc1cc2c(c(OC)c1OC)-c1ccc(SC)c(=O)cc1C(NC(=O)C(F)(F)F)CC2 (stereo not given) | inactive | > 79 µM (inactive) |
